{"source": "paper PMC10862539", "about": "“Chelation of Mitochondrial Iron as an Antiparasitic Strategy” (ACS Infectious Diseases, 2024)", "key": {"[1]": {"tested_on": "cytosolic pyruvate kinase", "assay": "Pyruvate kinase activity in cytosolic fraction of treated T. brucei 427", "type": "cell-based, Trypanosoma brucei", "conditions": "0.12 μM compound, 24 h", "method": "(§1) T. brucei 427 bloodstream forms were preincubated for 24 h in appropriate conditions (0.12 μM mitoDFO, 0.12 μM DFO, and no addition) and harvested, and cytosolic and mitochondrial fractions were separated by digitonin fractionation as described previously.[46] Briefly, cells were spun down (1200 g, 15 min, 4 °C) and resuspended in SHE buffer (250 mM sucrose, 25 mM HEPES, 1 mM EDTA, pH 7.4), and protein concentration was measured using a BCA kit (Sigma-Aldrich). Subsequently, cells were transferred into HBSS (Sigma-Aldrich) and digitonin (Calbiochem) was added in the protein/digitonin ratio of 1/0.15 for 4 min and spun (21 000 g, 2 min, 4 °C). […] The activities of cytosolic pyruvate kinase and mitochondrial threonine dehydrogenase were assessed in all conditions using the spectrophotometric assay at […], as described in ref ([46]), and served both as markers of successful fraction preparation and to assess the effect of the studied compounds. Briefly, pyruvate kinase was measured in TEA buffer (0.1 M triethanolamine, 5 mM MgSO4, 50 mM KCl, pH 7.6) with added 2.8 mM phosphoenolpyruvate, 2 mM ADP, 0.3 mM NADH, and lactate dehydrogenase. Threonine dehydrogenase was measured in 0.2 M Tris–HCl buffer, pH 8.6, 0.25 KCl with 120 mM threonine, and 2.5 mM NAD^+. Fumarase was measured at […] in 2 mM Tris–HCl buffer, pH 7.5, with 20 mM malate."}, "murine macrophage": {"tested_on": "murine macrophage", "assay": "Murine macrophage axenic monoculture EC50", "type": "cell-based, mouse", "conditions": "Mus musculus, Macrophage, read-out: EC50 axenic murine macrophage"}, "G. intestinalis": {"tested_on": "G. intestinalis", "assay": "Drug sensitivity assay, G. intestinalis (flow cytometry)", "type": "cell-based", "conditions": "for EC50: Giardia duodenalis, 24 h", "method": "(§2) All organisms were cultivated according to the conditions summarized in Table S2, which also includes strain specifications. Dose–response curves were obtained by their cultivation on 96 well plates in a 2-fold series dilution of the appropriate drug, in a total volume of 200 μL (with the exception of P. falciparum, where the total volume was 100 μL). Iron supplementation was achieved by mixing the compound with Fe-NTA in an equimolar ratio prior to setting up the experiment. Results were plotted and processed using Prism 8.0 (GraphPad Software). A two-tailed unpaired t-test was performed to assess the significance of the difference between mitoDFO with and without added iron. Selectivity was calculated as the ratio of the average EC50 value for human fibroblasts to the average EC50 value for the appropriate pathogen. All data were obtained from a minimum of three independent biological replicates."}, "T. brucei 427 (BSF)": {"tested_on": "T. brucei 427 (BSF)", "assay": "Drug sensitivity assay, T. brucei 427 bloodstream form (resazurine)", "type": "cell-based, Trypanosoma brucei", "conditions": "for selectivity (for −Fe): EC50 human fibroblasts / EC50 T. brucei 427 (BSF); for EC50: Trypanosoma brucei, 72 h", "method": "as §2"}, "Human fibroblast BJ1 [2]": {"tested_on": "Human fibroblast BJ1", "design": "method as in C. Sandoval-Acuña et al.[25]", "conditions": "ref C. Sandoval-Acuña et al.[25], read-out: control EC50; cited from earlier work"}, "[3]": {"tested_on": "Trypanosoma brucei 427 bloodstream forms", "assay": "T. brucei growth curves and doubling time (flow cytometry)", "type": "cell-based", "conditions": "for Average doubling time: calculated between 24 and 48 h", "method": "Bloodstream T. brucei 427 cells were inoculated to a concentration of […] and incubated with the addition of mitoDFO (0.025 and 0.1 μM) or DFO (2.5 and 10 μM) in aerobic flasks in a total volume of 5 mL in 5% CO2 at 37 °C. Control with no compound was used to obtain reference values. At time points 24, 36, 48, and 72 h, a 20 μL sample was collected, diluted in growth medium, and measured on a Guava EasyCyte 8HT flow cytometer (Luminex) to assess concentration in previously experimentally prepared settings. The culture was simultaneously observed by light microscopy to confirm the cell viability. The growth curve was plotted by using Prism 8.0 (GraphPad Software). All conditions were measured in three biologically independent replicates. Doubling time was calculated between 24 and 48 h time points using the online calculator,[45] and each of the conditions was compared to the untreated culture using a two-tailed unpaired t-test."}, "A. castellanii": {"tested_on": "A. castellanii", "assay": "Drug sensitivity assay, A. castellanii (flow cytometry)", "type": "cell-based, Acanthamoeba castellanii", "conditions": "for selectivity (for −Fe): EC50 human fibroblasts / EC50 A. castellanii; for EC50: Acanthamoeba castellanii, 96 h", "method": "as §2"}, "B. divergens": {"tested_on": "B. divergens", "assay": "Drug sensitivity assay, B. divergens in bovine erythrocytes (flow cytometry)", "type": "cell-based, Babesia divergens", "conditions": "for EC50: Babesia divergens, Erythrocyte, 48 h; for selectivity (for −Fe): EC50 human fibroblasts / EC50 B. divergens", "method": "as §2"}, "Human fibroblast BJ1 [4]": {"tested_on": "Human fibroblast BJ1", "assay": "Drug sensitivity assay, human fibroblast BJ1 (CellTiter-Glo)", "type": "cell-based", "conditions": "for EC50: 48 h", "method": "as §2"}, "[5]": {"tested_on": "mitochondrial threonine dehydrogenase", "assay": "Threonine dehydrogenase activity in mitochondrial fraction of treated T. brucei 427", "type": "cell-based, Trypanosoma brucei", "conditions": "0.12 μM compound, 24 h", "method": "as §1"}, "Cryptococcus neoformans": {"tested_on": "Cryptococcus neoformans", "assay": "C. neoformans capsule size (India ink microscopy)", "type": "cell-based", "conditions": "20 μM mitoDFO for 24 h; 31 cells", "method": "C. neoformans capsule thickness was measured using a previously published protocol.[33] Briefly, the yeast was seeded in 1 mL of RPMI in a 24 well plate with and without a final concentration of 20 μM mitoDFO for 24 h at 35 °C. The culture was harvested (1300 g, 5 min, RT) and resuspended in 50 μL of RPMI. An equal amount of India Ink (Thermo-Fisher) was added, and a total volume of 15 μL of resuspended cells was placed on a microscope slide, covered with cover glass, and imaged on an Eclipse TI-S (Nikon) inverted microscope using 100× magnification. A total of 31 cells were randomly selected, excluding morphologically anomalous and overlapping cells. Using NIS Elements BR (Nikon), the inner and outer diameters of each cell were measured, and cell size and capsule thickness were calculated. Graphs were plotted, and an unpaired t-test was performed using Prism 8.0 (GraphPad Software)."}, "C. neoformans": {"tested_on": "C. neoformans", "assay": "Drug sensitivity assay, C. neoformans (OD600)", "type": "cell-based, Cryptococcus neoformans", "conditions": "for EC50: Cryptococcus neoformans, 72 h", "method": "as §2"}, "[6]": {"conditions": "approximately half the EC50 concentration of the compound"}}, "note": "Like-named read-outs stand apart in the source and are kept apart here.", "data": [{"smiles": "CC(=O)N(O)CCCCCNC(=O)CCC(=O)N(O)CCCCCNC(=O)CCC(=O)N(O)CCCCCN(CCCCCCCCCC[P+](c1ccccc1)(c1ccccc1)c1ccccc1)CCCCCCCCCC[P+](c1ccccc1)(c1ccccc1)c1ccccc1", "note": "[mitoDFO]", "values": [{"measurement": "pyruvate kinase activity", "setting": "[1]", "result": "no difference in activity"}, {"measurement": "EC50", "setting": "murine macrophage", "result": "6.34 ± 4.45", "unit": "µM"}, {"measurement": "EC50", "setting": "G. intestinalis; read-out: EC50 –Fe", "result": "> 50", "unit": "µM"}, {"measurement": "effect on G. intestinalis", "setting": "G. intestinalis; in words", "result": "not affected"}, {"measurement": "selectivity (for −Fe)", "setting": "T. brucei 427 (BSF)", "result": 151}, {"measurement": "DFO/mitoDFO ratio (−Fe)", "setting": "T. brucei 427 (BSF); T. brucei 427 (BSF)", "result": 372.9}, {"measurement": "mitoDFO EC50 ratio + Fe/–Fe", "setting": "T. brucei 427 (BSF); T. brucei 427 (BSF)", "result": 2.1}, {"measurement": "EC50", "setting": "T. brucei 427 (BSF); read-out: EC50 –Fe", "result": "0.059 ± 0.022", "unit": "µM"}, {"measurement": "EC50", "setting": "Human fibroblast BJ1 [2]", "result": "7.9 ± 3.9", "unit": "µM"}, {"measurement": "Average doubling time", "setting": "[3]; 0.025 μM mitoDFO", "result": 8.07, "unit": "h"}, {"measurement": "cell proliferation (growth curve)", "setting": "[3]; [6]", "result": "does not affect cell proliferation"}, {"measurement": "cell proliferation (growth curve)", "setting": "[3]; twice the EC50 concentration", "result": "stops its growth"}, {"measurement": "DFO/mitoDFO ratio (−Fe)", "setting": "A. castellanii; A. castellanii", "result": 11.1}, {"measurement": "mitoDFO EC50 ratio + Fe/–Fe", "setting": "A. castellanii; A. castellanii", "result": 1.3}, {"measurement": "selectivity (for −Fe)", "setting": "A. castellanii", "result": 11}, {"measurement": "DFO/mitoDFO ratio (−Fe)", "setting": "B. divergens; B. divergens", "result": 4.7}, {"measurement": "mitoDFO EC50 ratio + Fe/–Fe", "setting": "B. divergens; B. divergens", "result": 2.5}, {"measurement": "EC50", "setting": "B. divergens; read-out: EC50 –Fe", "result": "2.3 ± 0.8", "unit": "µM"}, {"measurement": "selectivity (for −Fe)", "setting": "B. divergens", "result": 4}, {"measurement": "EC50", "setting": "Human fibroblast BJ1 [4]; Homo sapiens, Fibroblast, read-out: EC50 –Fe", "result": "8.9 ± 3.2", "unit": "µM"}, {"measurement": "DFO/mitoDFO ratio (−Fe)", "setting": "Human fibroblast BJ1 [4]; Human fibroblast BJ1", "result": ">11.2"}, {"measurement": "mitoDFO EC50 ratio + Fe/–Fe", "setting": "Human fibroblast BJ1 [4]; Human fibroblast BJ1", "result": 2.5}, {"measurement": "threonine dehydrogenase activity", "setting": "[5]", "result": "significantly reduced"}, {"measurement": "capsule thickness", "setting": "Cryptococcus neoformans", "result": "increases significantly"}, {"measurement": "overall cell size", "setting": "Cryptococcus neoformans", "result": "remains the same"}, {"measurement": "DFO/mitoDFO ratio (−Fe)", "setting": "C. neoformans; C. neoformans", "result": ">50"}, {"measurement": "mitoDFO EC50 ratio + Fe/–Fe", "setting": "C. neoformans; C. neoformans", "result": 2.1}, {"measurement": "EC50", "setting": "C. neoformans; read-out: EC50 –Fe", "result": "2 ± 0.5", "unit": "µM"}, {"measurement": "selectivity (for −Fe)", "setting": "C. neoformans; EC50 human fibroblasts / EC50 C. neoformans", "result": 4}]}, {"smiles": "CC(=O)N(O)CCCCCNC(=O)CCC(=O)N(O)CCCCCNC(=O)CCC(=O)N(O)CCCCCN", "note": "[DFO, Deferoxamine, reference compound]", "values": [{"measurement": "pyruvate kinase activity", "setting": "[1]", "result": "no difference in activity"}, {"measurement": "EC50", "setting": "murine macrophage; axenic monoculture", "result": "> 25", "unit": "µM"}, {"measurement": "EC50", "setting": "G. intestinalis; iron-free compound, G. intestinalis, read-out: EC50 –Fe", "result": "> 100", "unit": "µM"}, {"measurement": "EC50", "setting": "G. intestinalis; pre-treated with equimolar iron, G. intestinalis, read-out: EC50 +Fe", "result": "> 100", "unit": "µM"}, {"measurement": "selectivity (for −Fe)", "setting": "T. brucei 427 (BSF)", "result": ">5"}, {"measurement": "EC50", "setting": "T. brucei 427 (BSF); iron-free compound, T. brucei 427 (BSF), read-out: EC50 –Fe", "result": "22 ± 1.2", "unit": "µM"}, {"measurement": "EC50", "setting": "T. brucei 427 (BSF); pre-treated with equimolar iron, T. brucei 427 (BSF), read-out: EC50 +Fe", "result": "> 50", "unit": "µM"}, {"measurement": "Average doubling time", "setting": "[3]; 2.5 μM DFO", "result": 8.28, "unit": "h"}, {"measurement": "Average doubling time", "setting": "[3]; 10 μM DFO", "result": 14.17, "unit": "h"}, {"measurement": "cell proliferation (growth curve)", "setting": "[3]; [6]", "result": "slows down cell proliferation"}, {"measurement": "EC50", "setting": "A. castellanii; iron-free compound, A. castellanii, read-out: EC50 –Fe", "result": "8.9 ± 0.6", "unit": "µM"}, {"measurement": "EC50", "setting": "A. castellanii; pre-treated with equimolar iron, A. castellanii, read-out: EC50 +Fe", "result": "> 50", "unit": "µM"}, {"measurement": "selectivity (for −Fe)", "setting": "A. castellanii", "result": ">11"}, {"measurement": "EC50", "setting": "B. divergens; iron-free compound, B. divergens, read-out: EC50 –Fe", "result": "10.8 ± 1.3", "unit": "µM"}, {"measurement": "EC50", "setting": "B. divergens; pre-treated with equimolar iron, B. divergens, read-out: EC50 +Fe", "result": "> 50", "unit": "µM"}, {"measurement": "selectivity (for −Fe)", "setting": "B. divergens", "result": ">9"}, {"measurement": "EC50", "setting": "Human fibroblast BJ1 [4]; iron-free compound, Human fibroblast BJ1, read-out: EC50 –Fe", "result": "> 100", "unit": "µM"}, {"measurement": "EC50", "setting": "Human fibroblast BJ1 [4]; pre-treated with equimolar iron, Human fibroblast BJ1, read-out: EC50 +Fe", "result": "> 100", "unit": "µM"}, {"measurement": "threonine dehydrogenase activity", "setting": "[5]", "result": "not"}, {"measurement": "EC50", "setting": "C. neoformans; iron-free compound, C. neoformans, read-out: EC50 –Fe", "result": "> 100", "unit": "µM"}, {"measurement": "EC50", "setting": "C. neoformans; pre-treated with equimolar iron, C. neoformans, read-out: EC50 +Fe", "result": "> 100", "unit": "µM"}]}]}
